These results are taken from patent publication US20100273748A1, “ANTIMICROBIAL THERAPY” (priority 2006, published 2010).

The subject of test [1] is Staphylococcus aureus. As to the kind of experiment: Bacterial growth inhibition (turbidity OD600) with or without carbonate. Format: cell-based.
Test [2] concerns Salmonella. Description: Bacterial growth inhibition with or without NaHCO3. Format: cell-based. The note with it: 16 uM CRAMP without NaHCO3.
Test [3] relates to antigen presentation. As to the kind of experiment: Antigen presentation in vitro. Format: cell-based.
The subject of test [4] is Group B Strep (GBS). Description: Bacterial growth inhibition with or without NaHCO3. Format: cell-based. The note with it: 16 uM CRAMP without NaHCO3.
Test [5] relates to E. coli. Description: Bacterial growth inhibition with or without NaHCO3. The class given is cell-based.
For test [6], the system named is IL-8. Description: qPCR of IL-8 transcript in cultured keratinocytes. The note with it: Malp-2 (0.1 μg ml^−1) only. The class given is cell-based, human. Here is the method: (§1) Cell culture and stimuli. Human keratinocytes were grown in serum-free EpiLife® cell culture media (Cascade Biologics; Portland, Oreg.) containing 0.06 mM Ca2+ and 1× EpiLife® defined growth supplement (EDGS) at 37° C. under standard tissue culture conditions. Stock cultures were maintained for up to five passages in this media with the addition of 50 U/mL penicillin and 50 μg/mL streptomycin. HaCaT keratinocytes were cultured in DMEM (Sigma, St. Louis, Mo.) with 10% FCS. Cells at 50-70% confluence were stimulated in fresh medium after preincubation with 1,25(OH)2 vitamin D3 (1,25D3; 0.1-100 nM, 4-24 h; Sigma). Alternatively, NHEK were stimulated in the presence of 1,25D3 (0.1-100 nM). […]
(§2) Real-time RT-PCR (qPCR). […] Expression of cathelicidin and GAPDH was analysed by real-time RT-PCR. […] Fold induction relative to the vehicle treated control in in vitro experiments was calculated using the comparative Ct method, where ΔΔCt is ΔCt(stimulant)-ΔCt(vehicle), ΔCt is Ct(gene)-Ct(GAPDH) and Ct is the cycle at which an arbitrary detection threshold is crossed. For quantification of transcript abundance in tissue samples target gene expression was normalized to GAPDH and compared to non-treated or non-injured skin.
On the technique in general: Real-time PCR tracks product formation cycle by cycle.

Test [7] relates to cathelicidin. Description: Cathelicidin peptide immunostaining in organotypic epidermal constructs. Format: cell-based, human. The text has this: Organotypic culture. Epiderm™ human skin-like tissue constructs were obtained from MatTek (Ashland, Mass.) and cultured according to manufacturer's instructions. […] Skin constructs were cut after stimulation and transferred to Trizol® (Invitrogen, Carlsbad, Calif.) for RNA extraction or immediately frozen in Tissue-Tek® (Sakura, Torrance, Calif.) for immunostaining.
Immunostaining. After fixation in 2% PFA and subsequent washings in PBS, sections from skin tissue or epidermal constructs were blocked in 3% BSA in PBS for 30 min at RT and stained with anti-cathelicidin LL-37 primary antibody or preimmune serum. After washings in PBS, slides from epidermal constructs were re-probed with a FITC labeled goat anti-chicken antibody. Nuclei were detected with DAPI. After subsequent washings with PBS slides, were mounted in ProLong Anti-Fade reagent (Molecular Probes, Eugene, Oreg.) and evaluated with an Olympus BX41 microscope (Olympus, Melville, N.Y.). Paraffin embedded formalin fixed tissue sections were rehydrated in a series of toluene, ethanol, and PBS. Endogenous peroxidase activity was quenched by 30 min incubation in 0.3% H2O2 in water, and sections microwaved for 4 min in antigen retrieval solution (0.01M citric acid, 0.05M

For test [8], the system named is CYP27B1. Description: qPCR of CYP27B1 mRNA in cultured keratinocytes. The class given is cell-based, human. The settings on record: 24 hours, TGF 1 μg/ml, TNFα 20 ng/ml, TLR2 ligand Malp-2. Here is the method: as §1, §2
The test system of test [9] is cathelicidin. Description: qPCR of cathelicidin mRNA in cultured keratinocytes. The class given is cell-based, human. Here is the method:
Cell culture and stimuli. Human keratinocytes were grown in serum-free EpiLife® cell culture media (Cascade Biologics; Portland, Oreg.) containing 0.06 mM Ca2+ and 1× EpiLife® defined growth supplement (EDGS) at 37° C. under standard tissue culture conditions. Stock cultures were maintained for up to five passages in this media with the addition of 50 U/mL penicillin and 50 μg/mL streptomycin. HaCaT keratinocytes were cultured in DMEM (Sigma, St. Louis, Mo.) with 10% FCS. Cells at 50-70% confluence were stimulated in fresh medium after preincubation with 1,25(OH)2 vitamin D3 (1,25D3; 0.1-100 nM, 4-24 h; Sigma). Alternatively, NHEK were stimulated in the presence of 1,25D3 (0.1-100 nM). Stimuli included TLR2,6 ligands Malp-2 (0.001-0.5 μg/ml; Alexis Biochemicals, Carlsbad, Calif.), FSL-1 (1-2 μg/ml, Invivogen, San Diego, Calif.) and zymosan (50 μg/ml; Invivogen), as well as flagellin (50 ng/ml; Alexis), LPS (1 μg/ml; Sigma), lipoteichoic acid (LTA; 10 μg/ml; Sigma), 19 kDA lipopeptide (10 μg/ml, a kind gift from S. Krutzik, Division of Dermatology, UCLA), CpG DNA (10 μg/ml; Sigma), Ca2+ (1.7 mM), LPS (1 μg/ml; Sigma), TNFα (20 ng/ml; Chemicon Temecula, Calif.) and TGFβ1 (0.1-1 μg/ml; R&D Systems, Minneapolis, Minn.). A TLR2 blocking antibody (αTLR2; clone TL2.1, 5 μg/ml, eBioscience, San Diego, Calif.) was utilized to investigate the role of TLR2 signaling. Furthermore, keratinocytes were pretreated with a vitamin D receptor antagonist (VDR-antagonist ZK159222 Schering AG; 10^-7M) or the CYP inhibitor itraconazole (ITRA; 10^-7M) before stimulation with TGFβ in the presence of 25OH vitamin D3 (25D3, 10 nM, Sigma).
Real-time RT-PCR (qPCR). RNA was extracted from cells, epidermal constructs or tissue using Trizol® and 1 μg RNA was reverse transcribed using iScript® (BioRad, Hercules, Calif.). Expression of cathelicidin and GAPDH was analysed by real-time RT-PCR. Predeveloped Taqman® assay probes (ABI, Foster City, Calif.) were used for the analyses of the expression of CYP24A1 (24-hydroxylase), CYP27B1 (1α-hydroxylase), CD14, CD36, TLR1, TLR2, TLR4, TLR6 and murine CD14. All analyses were performed in triplicate from 2-5 independent experiments in an ABI Prism® 7000 Sequence Detection System. Fold induction relative to the vehicle treated control in in vitro experiments was calculated using the comparative Ct method, where ΔΔCt is ΔCt(stimulant)-ΔCt(vehicle), ΔCt is Ct(gene)-Ct(GAPDH) and Ct is the cycle at which an arbitrary detection threshold is crossed. For quantification of transcript abundance in tissue samples target gene expression was normalized to GAPDH and compared to non-treated or non-injured skin.

The test system of test [10] is cathelicidin promoter. Description: Cathelicidin (CAMP) promoter luciferase reporter in HaCat keratinocytes. Format: cell-based, human. The text has this: Promoter analysis and site directed mutagenesis. […]. Primers were designed to introduce an NheI restriction site at the 5″end and an XhoI restriction site at the 3″end of the amplicon. The amplification product was cloned into the TOPO vector (Invitrogen) and transformed into E. coli TOP10 OneShot competent cells (Invitrogen). After DNA purification using the WizardPLus, SV Miniprep purification system (Promega, Madison, Wis.) the construct was digested with NheI and XhoI and then subcloned into the promoterless pGL3-basic firefly luciferase vector (Promega). […]. The resulting plasmid lacking the VDRE binding site cloned in the pGL3-basic vector was termed pGL-3 1500-VDRE. All resulting constructs were confirmed by sequencing. For transfection HaCat cells were seeded in 24 well plates (BD Biosciences) and used for transfection at 50 to 70% confluence. Cells were transfected with the indicated CAMP reporter plasmids and 0.1 μg of an internal-control Renilla luciferase expression plasmid (pRL-TK; Promega, Madison, Wis.) by using 1.5 μl of transfection reagent Fugene 6 (Roche) according to the manufacturer's instructions. […] Firefly luciferase activity from the CAMP pGL3 reporter vectors and Renilla luciferase activity were measured by the Dual Luciferase Assay system (Promega) in a luminometer (Optocomp I, MGM Instruments, Hamden, Conn.). […]
(In general: A reporter such as luciferase makes a cellular process visible.)

Test [11] deals with acetylated histone H4. Description: Histone H4 acetylation in keratinocytes (immunofluorescence, Western blot). The class given is cell-based, human. The settings on record: NHEK stimulated with butyrate or TLR ligand. Here is the method:
Panel a; Immunofluorescence staining of acetylated histone H4 protein in NHEK treated with HDACi in the presence or absence of 1,25D3. […] Panel b: Western blot of acetylated histone 4 from keratinocytes treated with the HDACi butyrate or TLR agonists. […] Bar=30 μM.
The abundance of acetylated histone was directly measured to confirm the inhibitory effects of butyrate and TSA on HDACs. […] To determine if changes in histone acetylation occur upon stimulation of keratinocytes with TLR ligands NHEK were stimulated with different TLR ligands and histone acetylation was assessed.
In general terms: In western blotting, separated proteins are transferred to a membrane and probed.

Test [12] concerns enteroinvasive E. coli 029. Description: Radial diffusion assay. Format: cell-based.
Test [13] deals with Group A Streptococcus (NZ131).
Experimental: Solution killing was done in 10% TSB in 10 mM PB (TSB=30 gm/L Tryptic Soy Broth, Sigma, St Louis Mo.; 20×PB=27.6 g/L NaH2PO4-H2O, 53.65 g/L Na2HPO4-7H2O, pH 7.4). Bacteria in log-phase growth were suspended to 1×10^6 cells/ml, peptide added and incubated at 37° C. for 2 hr. Bacteria were then plated on TSB agar (TSB, Bactoagar 13 g/L, Becton Dickinson, Sparks Md.) for direct colony count and determination of CFU.
Activity against Group A Streptococcus (NZ131) was done only in solution assay as described.
Test [14] has as its system C. albicans. As to the kind of experiment: Liquid assay, minimum fungicide concentration. Format: cell-based, Candida albicans.
Experimental: Action against the C. albicans was determined in Dixon medium (0.6% Peptone, 4% Malt Extract, 1% Glucose, 0.1% Ox Bile, 1% Tween-80) in sterile 96-well microtiter plates (Corning Inc., Corning, N.Y.) at a final volume of 50 ml. […] Microtiter plates were incubated at 37° C. for 24 h with peptides, then plated on Dixon agar to determine the MFC (minimum fungicide concentration).
Test [15] concerns Staphylococcus aureus mprF. Description: Radial diffusion assay. The class given is cell-based. Here is the method: Sweat collection and processing. Sweat was collected on paper tissues (Kimwipes, Kimberly-Clark, Ga.) from healthy volunteers after exercise. After collection, 20 ml of sweat was centrifuged at 2000 g for 15 min. at 4° C., filtered through a […] (Acrodisc syringe filter, 0.2 mm, low protein binding, Fisher scientific, Tustin, Calif.), and frozen at −80° C. For some experiments sweat was lyophilized to dryness, then suspended in 400 μl of distilled water (DW: cell culture grade, endotoxin free, GibcoBRL, Grand island, NY). For analysis of LL37 processing by sweat, 1.6 nmol of LL-37 synthetic peptide was incubated in 50 ml of sweat for 0, 1, 6, 24 hrs at 37° C. or 4° C. In some experiments proteinase inhibitors including; mixed protease inhibitor cocktail (1tab/10 ml, Roche, Indianapolis, Ind.), […] Bestatin, 10 mg/ml E-64, 10 mg/ml Aprotinin, (Sigma, St Louis, Mo.); 100 mM AEBSF, 100 mM Neutrophil elastase inhibitor (NEI) or 100 mM leukocyte elastase inhibitor (LEI) (Calbiochem, San Diego, Calif.) were added during incubation. After incubation, 2 ml was assayed by radial diffusion assay to determine antibacterial activity. For analysis by HPLC 32 nmoles LL-37 was incubated in 100u1. To control for potential contamination from paper tissues, parallel processing was done on tissues soaked in phosphate-buffered saline (PBS:137 mM NaCl, 2.7 mM KCL, 4.3 mM Na2HPO4-H2O, 1.4 mM KH2PO4, pH 7.4). No antimicrobial activity was detectable in these preparations. Protein concentrations were evaluated by BCA assay (protein assay reagent, Pierce, Rockford, Ill.) or Bradford protein assay (Bio-Rad, Hercules, Calif.) according to manufacture's instructions. Human tissue and blood collection was approved by the UCSD Human Research Protection Program.
Antimicrobial assays. For screening of antimicrobial activity of HPLC fractions, radial diffusion assay was used. Lyophilized HPLC fractions were dissolved in DW (GibcoBRL, Grand Island, N.Y.), and tested against Staphylococcus aureus mprF. Thin plates (1 mm) of 1% agarose in 0.5% tryptone containing approximately 1×10^6 cells/ml of S. aureus mprF were used. 1 mm wells were punched in the plates and […] of samples dissolved in tissue culture grade sterile water were loaded in each well.

In test [16] the test system is wild-type S. aureus (clinical isolate). Description: Radial diffusion assay. The class given is cell-based.
The mark [17] stands for this setting: 16 uM CRAMP without 50 mM NaHCO3.

For CRAMP, the susceptibility to peptide result is “became susceptible” in test [1] (16 uM CRAMP with 50 mM NaHCO3); “resistant” in test [1] (setting [17]); “susceptible even without NaHCO3” in [2]; “susceptible even without NaHCO3” in [4]; “became susceptible” in test [5] (16 uM CRAMP with 50 mM NaHCO3); “resistant” in [5] (setting [17]). In addition, in [1] (20% TSB, 1 mM NaH2PO4, with or without 50 mM NaHCO3, pH 7.4), the “change of minimal inhibitory concentration (MIC) by NaHCO3” value is recorded as “greatly reduced”. Also, in test [3], the “antigen presentation in vitro” value was “inhibits antigen presentation in vitro”.
In the case of Malp-2, in test [6], the IL-8 expression result is given as “increased when stimulated with only Malp-2”. The “cathelicidin peptide response to Malp-2” value in [7] (Malp-2 0.1 μg/ml with 1,25D3 (100 nM)) is given as “did after its addition”; in test [7] (Malp-2 0.1 μg/ml, absence of 1,25D3) it was “did not respond to Malp-2 in the absence of 1,25D3”. In addition, the CYP27B1 expression entry in test [8] is “could be induced”. Also, the cathelicidin transcript abundance result in [9] (Malp-2 (0.1 μg ml^−1) alone) is reported as “has no effect”. Also, the “cathelicidin response to Malp-2” value in [9] (keratinocyte monolayers in high calcium (1.7 mM), no 1,25D3) is listed as “did not respond to TLR2,6 activation by Malp-2”. Moreover, the “cathelicidin expression in response to TLR ligand” value in test [9] (keratinocytes pretreated with 1,25D3 0.1 nM 24 hours, then TLR ligand 24 hours) was “responded to Malp-2”. The cathelicidin promoter activity result is “responsive to Malp-2” in test [10] (Malp-2 0.1 μg/ml in the presence of 1,25D3 (100 nM), construct including the VDRE) and “no significant effect” in test [10] (absence of 1,25D3 or the VDRE). Further, the “acetylation of histone H4” value in test [11] is listed as “also increased histone acetylation”.
With “SSLLEKGLDGAKKAVGGLGKLGKDAVEDLESVGKGAVHDVKDVLDSV [DCD, dermcidin antimicrobial peptide of human sweat]”, the “Radial Diffusion Assay, minimal inhibitory concentration (MIC), E. coli (O29))” value in test [12] came out at 4 μm. In addition, the “Liquid Assay, minimal concentration required to kill GAS (NZ131)” value in test [13] is reported as 4 μm. Moreover, the “Liquid Assay, minimal concentration required to kill C. albicans ATCC 14053 (head printed truncated: albicans CC 14053)” value in test [14] was found to be 7 μm. In addition, the “Radial Diffusion Assay, minimal inhibitory concentration (MIC), S. aureus mprF (head printed truncated: aureus cF)” value in test [15] amounted to 4 μm. In test [16], the “Radial Diffusion Assay, minimal inhibitory concentration (MIC), S. aureus (wt)” value came out at 4 μm.
